# Legend:
# PTEN and TIMP3 = assay: Western blot of PTEN and TIMP3 in GTL16 cells; type: cell-based, human; details: GTL16 cells treated for 24 h with 4 μM
# Method: Total proteins from NSCLC and HCC cells were extracted with radioimmuno-precipitation assay (RIPA) buffer ([…] NaCl, […] Tris-HCl, pH 7.5, 1% Triton, 0.1% SDS, 0.1% sodium deoxycholate and 1% Nonidet P40). Sample extract (50 μg) was resolved on 7.5-12% SDS-polyacrylamide gels (PAGE) using a mini-gel apparatus (Bio-Rad Laboratories) and transferred to Hybond-C extra nitrocellulose. Membranes were blocked for 1 h with 5% nonfat dry milk in Tris-buffered saline containing 0.05% Tween 20, incubated overnight with primary antibody, washed and incubated with secondary antibody, and visualized by chemiluminescence.
# The following primary antibodies were used: anti-PTEN, anti-c-Jun, anti-p-c-Jun, anti-Fos, anti-p-JNK, anti-MMP3, anti-Mc1-1 (Santa Cruz), anti-TIMP3 (Millipore) anti-PI3K (BD Biosciences), anti-ERKs, anti-phospho ERKs, anti-AKT, anti-p-AKT, anti-GSK3b, anti-p-GSK3b (Ser9), anti-PAK1 anti-caspase-8,-3 and -9, anti-PARP, anti-cytochrome c (Cell signaling) and anti-MMP9, anti-FADD (Abcam), anti-1-actin antibody (Sigma). A secondary anti-rabbit or anti-mouse immunoglobulin G (IgG) antibody peroxidase conjugate (Chemicon) was used.
# miR-221 and miR-222 = assay: qRT-PCR of miR-221 and miR-222 in GTL16 cells; type: cell-based, human; details: GTL-16 cells, MET inhibition, compared with the untreated cells
# Method: Real-time PCR was performed using a standard TaqMan PCR Kit protocol on an Applied Biosystems 7900HT Sequence Detection System (Applied Biosystems). The 10 μl PCR reaction included 0.67 μl RT product, 1 μl TaqMan Universal PCR Master Mix (Applied Biosystems), […]. The reactions were incubated in a 96-well plate at 95° C. for […], followed by 40 cycles of 95° C. for 15 s and 60° C. for 1 min. All reactions were run in triplicate. The threshold cycle (CT) is defined as the fractional cycle number at which the fluorescence passes the fixed threshold. The comparative CT method for relative quantization of gene expression (Applied Biosystems) was used to determine miRNA expression levels. The y axis represents the 2(-CT), or the relative expression of the different miRs. miRs expression was calculated relative to U44 and U48 rRNA and multiplied by 104. Experiments were carried out in triplicate for each data point, and data analysis was performed by using software (Bio-Rad).
# H460 xenograft = H460 xenograft in nude mice treated with TRAIL; type: in vivo; details: H460 shPTEN and shTIMP3 vs sh control, TRAIL 10 mg/kg/d ip, 35 days
# Method: (§1) Animal studies were performed according to institutional guidelines. NCI-H460 cells were stable transfected by using shPTEN and TIMP3 plasmids (Santa Cruz); Calu-1 cells were stable transfected with shMET. After the selection in puromycin for 10 days 5 106 (H460) or 7106 (Calu-1) viable cells were injected s.c. into the right flanks of 6-wk-old male nude mice (Charles RiverBreeding Laboratories, Wilmington, Mass.). Treatment started five days (H460 xenograft) or ten days (Calu-1 xenograft) from tumor cell inoculation by daily ip injections of TRAIL/Apo2 (10 mg/kg/d) or vehicle (PBS) for two cycles of 5 days. Tumor size was assessed every five days by a digital caliper. The tumor volumes were determined by measuring the length (1) and the width (w) and calculating the volume (V=lw2/2). 35 days after injection, mice were sacrificed and tumors samples were analyzed by western blot for PTEN, TIMP3 and MET expression. Statistical significance between control and treated animals was evaluated by using Student's t test. Animal experiments were conducted after approval of the Institutional animal care and use committee, Ohio State University.
# Calu-1 xenograft = Calu-1 xenograft in nude mice treated with TRAIL; type: in vivo; details: Calu-1 shMET vs sh control, TRAIL 10 mg/kg/d ip
# Method: as §1
# HCC-derived cell lines = assay: Proliferation (MTT) assay on HCC-derived cell lines exposed to TRAIL; type: cell-based, human; details: TRAIL 400 ng/ml 24 h
# Method: Cells were plated in 96-well plates in triplicate and incubated at 37° C. in a 5% CO2 incubator. Super-Killer TRAIL (Alexis Biochemicals) was used for 24-48 h at 400 ng ml-1. Cell viability was examined with 3-(4,5-dimethylthiazol-2-yl)-2,5-dipheniltetrazolium bromide (MTT)-Cell Titer 96 AQueous One Solution Cell Proliferation Assay (Promega), according to the manufacturer's protocol. Metabolically active cells were detected by adding 20 μl of MTT to each well. After 1 h of incubation, the plates were analyzed in a Multilabel Counter (Bio-Rad Laboratories). Apoptosis was assessed using Annexin V-FITC apoptosis detection kits followed by flowcytometric analysis and caspase 3/7 activity. Cells were seeded at 1.8106 cells per 100 mm dish, grown overnight in 10% FBS/RPMI, washed with phosphate-buffered saline (PBS) and then treated for 24 h with 400 ng/ml TRAIL. Following incubation, cells were washed with cold PBS and removed from the plates by trypsinization. […] Statistical analysis was done using two sample t test, assuming equal variance, and P value was calculated based on two-tailed test. For detection of caspase 3/7 activity, cells were cultured in 96-well plates and treated with TRAIL 400 ng/ml and analyzed using Caspase-Glo 3/7 Assay kit (Promega) according to the manufacturer's instructions. Continuous variables are expressed as mean values±standard deviation (s.d.).
Molecule,"miR-221 and miR-222 targets (PTEN, TIMP3) expression levels, western blot (PTEN and TIMP3)",miR-221 and miR-222 downregulated (qRT-PCR) (miR-221 and miR-222),tumor engraftment size / TRAIL resistance (H460 xenograft),tumor growth / sensitivity to TRAIL (Calu-1 xenograft),"cell proliferation / TRAIL-induced cell death (MTT) (HCC-derived cell lines; HepG2, Sk-Hep1 and Huh 7, low miR-221-miR-222 expression)","cell proliferation / TRAIL-induced cell death (MTT) (HCC-derived cell lines; PLC/PRF-5 and Snu-387, high miR-221-miR-222 expression)"
Cc1[nH]c(/C=C2\C(=O)Nc3ccc(S(=O)(=O)N(C)c4cccc(Cl)c4)cc32)c(C)c1C(=O)N1CCN(C)CC1 [SU11274],increased miR-221 and miR-222 targets expression levels,about 40%,,,,
TRAIL,,,increases TRAIL resistance in vivo,more sensitive to TRAIL inducing apoptosis,underwent TRAIL-induced cell death,did not display sensitivity

# — patent US9212396B2, “Materials and methods useful for affecting tumor cell growth, migration and invasion” (The Ohio State University, priority 2009, dated 2015)
